Patent US20110224210A1, “NOVEL BIS-AMIDES AS ANTI-MALARIAL AGENTS” (priority 2008, published 2011)

System: P. falciparum K1 (strain resistant to chloroquine and pyrimethamine), erythrocytic stages
Test: Plasmodium falciparum in vitro assay, [3H] hypoxanthine incorporation
Type: cell-based
Conditions: Plasmodium falciparum, K1, P. falciparum strain K1; [3H] hypoxanthine incorporation; read-out: IC50 (nM) on K1
How it was run: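 Chloroquine/pyrimethamine-resistant K1 erythrocytic cultures (2.5% haematocrit, 0.3% parasitaemia, hypoxanthine-free RPMI with Albumax) exposed to seven doubling dilutions at 37 °C under low O2.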

SMILES | IC50
COCCN(C)C(=O)[C@H](Cc1ccccc1)N(Cc1ccc(-c2ccncc2)cc1)C(=O)C=Cc1nc(C)oc1C [Example 97, (S)-3-(2,5-Dimethyl-oxazol-4-yl)-N-{1-[(2-methoxy-ethyl)-methyl-carbamoyl]-2-phenyl-ethyl}-N-(4-pyridin-4-yl-benzyl)-acrylamide] | 15 nM
COCCN(C)C(=O)[C@H](Cc1ccccc1)N(Cc1ccc(N2CCOCC2)cc1)C(=O)C=Cc1ccc(Cl)nc1 [Example 70, (S)-3-(6-Chloro-pyridin-3-yl)-N-{1-[(2-methoxy-ethyl)-methyl-carbamoyl]-2-phenyl-ethyl}-N-(4-morpholin-4-yl-benzyl)-acrylamide] | 144 nM
COCCN(C)C(=O)[C@H](Cc1ccccc1)N(Cc1ccc(N2CCN(C(C)=O)CC2)cc1)C(=O)C=Cc1ccc(OC)nn1 [Example 111, (S)-N-[4-(4-Acetyl-piperazin-1-yl)-benzyl]-N-{1-[(2-methoxy-ethyl)-methyl-carbamoyl]-2-phenyl-ethyl}-3-(6-methoxy-pyridazin-3-yl)-acrylamide] | 214 nM
COCCN(C)C(=O)[C@H](Cn1cccc1)N(Cc1ccc(-c2ccccn2)cc1)C(=O)C=Cc1ccc(C(F)(F)F)cc1 [Example 163, (S)-N-{1-[(2-Methoxy-ethyl)-methyl-carbamoyl]-2-pyrrol-1-yl-ethyl}-N-(4-pyridin-2-yl-benzyl)-3-(4-trifluoromethyl-phenyl)-acrylamide] | 37 nM
CCOCCN(C)C(=O)[C@H](Cc1ccccc1)N(Cc1ccc(N2CCOCC2)cc1)C(=O)C=Cc1ccc(C(F)(F)F)cc1 [Example 192, (S)-N-{1-[(2-Ethoxy-ethyl)-methyl-carbamoyl]-2-phenyl-ethyl}-N-(4-morpholin-4-yl-benzyl)-3-(4-trifluoromethyl-phenyl)-acrylamide] | 19 nM
COCCN(C)C(=O)[C@H](Cc1ccccc1)N(Cc1ccc(-c2ccncc2)cc1)C(=O)C=Cc1ccc(C(F)(F)F)cn1 [Example 102, (S)-N-{1-[(2-Methoxy-ethyl)-methyl-carbamoyl]-2-phenyl-ethyl}-N-(4-pyridin-4-yl-benzyl)-3-(5-trifluoromethyl-pyridin-2-yl)-acrylamide] | 6 nM
O=C([C@H](Cc1ccccc1)N(Cc1ccccc1)C(=O)C=Cc1ccc(C(F)(F)F)cc1)N1CCC(Cc2ccccc2)CC1 [Example 45, (S)-N-Benzyl-N-[1-benzyl-2-(4-benzyl-piperidin-1-yl)-2-oxo-ethyl]-3-(4-trifluoromethyl-phenyl)-acrylamide] | 4 nM
O=C([C@H](Cc1ccccc1)N(Cc1ccc(N2CCOCC2)nc1)C(=O)C=Cc1ccc(C(F)(F)F)cc1)N1CCC(Cc2ccccc2)CC1 [Example 143, (S)-N-[1-Benzyl-2-(4-benzyl-piperidin-1-yl)-2-oxo-ethyl]-N-(6-morpholin-4-yl-pyridin-3-ylmethyl)-3-(4-trifluoromethyl-phenyl)-acrylamide] | 5 nM
COCCN(C)C(=O)C(Cc1ccn(C)n1)N(Cc1ccc(-c2ccccn2)cc1)C(=O)C=Cc1ccc(C(F)(F)F)cc1 (racemic) [Example 165] | 76 nM
CC(=O)N1CCN(c2ccc(CN(C(=O)C=Cc3ccc(C(F)(F)F)cc3)[C@@H](Cc3ccccc3)C(=O)N(C)CCN(C)Cc3cccnc3)cc2)CC1 [Example 241, (S)-N-[4-(4-Acetyl-piperazin-1-yl)-benzyl]-N-(1-{methyl-[2-(methyl-pyridin-3-ylmethyl-amino)-ethyl]-carbamoyl}-2-phenyl-ethyl)-3-(4-trifluoromethyl-phenyl)-acrylamide] | 27 nM
COCCN(C)C(=O)C(Cc1cnn(C)c1)N(Cc1ccc(-c2ccncc2)cc1)C(=O)C=Cc1ccc(C(F)(F)F)cc1 (racemic) [Example 166] | 96 nM
COc1ccc(CN(C)CCN(C)C(=O)[C@H](Cc2ccccc2)N(Cc2ccc(N3CCOCC3)cc2)C(=O)C=Cc2ccc(C(F)(F)F)cc2)cn1 [Example 264, (S)-N-[1-({2-[(6-Methoxy-pyridin-3-ylmethyl)-methyl-amino]-ethyl}-methyl-carbamoyl)-2-phenyl-ethyl]-N-(4-morpholin-4-yl-benzyl)-3-(4-trifluoromethyl-phenyl)-acrylamide] | 39 nM
CC(=O)N1CCN(c2ccc(CN(C(=O)C=Cc3ccc(C(F)(F)F)cc3)[C@@H](Cc3ccccc3)C(=O)N(C)CCN(C)Cc3cnc[nH]3)cc2)CC1 [Example 252, (S)-N-[4-(4-Acetyl-piperazin-1-yl)-benzyl]-N-[1-({2-[(3H-imidazol-4-ylmethyl)-methyl-amino]-ethyl}-methyl-carbamoyl)-2-phenyl-ethyl]-3-(4-trifluoromethyl-phenyl)-acrylamide] | 80 nM
Cc1cc(C=CC(=O)N(Cc2ccc(-c3ccncc3)cc2)[C@@H](Cc2ccccc2)C(=O)N2CCC(N(C)C)CC2)n(C)n1 [Example 20, (S)-N-[1-Benzyl-2-(4-dimethylamino-piperidin-1-yl)-2-oxo-ethyl]-3-(2,5-dimethyl-2H-pyrazol-3-yl)-N-(4-pyridin-4-yl-benzyl)-acrylamide] | 116 nM
COCCN(C)C(=O)[C@H](Cc1ccccc1)N(Cc1ccc(N2CCOCC2)cc1)C(=O)C=Cc1ccc(C)cn1 [Example 68, (S)-N-{1-[(2-Methoxy-ethyl)-methyl-carbamoyl]-2-phenyl-ethyl}-3-(5-methyl-pyridin-2-yl)-N-(4-morpholin-4-yl-benzyl)-acrylamide] | 156 nM
CN(C)[C@H]1CCN(C(=O)[C@H](Cc2ccccc2)N(Cc2ccc(-c3ccccn3)cc2)C(=O)C=Cc2ccc(C(F)(F)F)nc2)C1 [Example 56, N-[(S)-1-Benzyl-2-((S)-3-dimethylamino-pyrrolidin-1-yl)-2-oxo-ethyl]-N-(4-pyridin-2-yl-benzyl)-3-(6-trifluoromethyl-pyridin-3-yl)-acrylamide] | 58 nM
COCCN(C)C(=O)[C@H](Cc1ccccc1)N(Cc1ccc(-c2ccccn2)cc1)C(=O)C=Cc1cc(C)nn1C [Example 74, (S)-3-(2,5-Dimethyl-2H-pyrazol-3-yl)-N-{1-[(2-methoxy-ethyl)-methyl-carbamoyl]-2-phenyl-ethyl}-N-(4-pyridin-2-yl-benzyl)-acrylamide] | 40 nM
CC(=O)N1CCN(c2ccc(CN(C(=O)C=Cc3ccc(C(F)(F)F)cc3)[C@@H](Cc3ccccc3)C(=O)N(C)CCN(C)Cc3ccc4c(c3)OCCN4C)cc2)CC1 [Example 245, (S)-N-[4-(4-Acetyl-piperazin-1-yl)-benzyl]-N-[1-(methyl-{2-[methyl-(4-methyl-3,4-dihydro-2H-benzo[1,4]oxazin-7-ylmethyl)-amino]-ethyl}-carbamoyl)-2-phenyl-ethyl]-3-(4-trifluoromethyl-phenyl)-acrylamide] | 87 nM
COCCN(C)C(=O)C(CN1CCN(C)CC1)N(Cc1ccc(-c2ccccn2)cc1)C(=O)C=Cc1ccc(C(F)(F)F)cc1 (racemic) [Example 278] | 137 nM
COCCN(C)C(=O)[C@H](Cc1ccccc1)N(Cc1ccc(-c2ccccn2)cc1)C(=O)C=Cc1c(C)nn(C)c1C [Example 75, (S)-N-{1-[(2-Methoxy-ethyl)-methyl-carbamoyl]-2-phenyl-ethyl}-N-(4-pyridin-2-yl-benzyl)-3-(1,3,5-trimethyl-1H-pyrazol-4-yl)-acrylamide] | 11 nM
Cc1ccc(CN(C)CCN(C)C(=O)[C@H](Cc2ccccc2)N(Cc2ccc(N3CCOCC3)cc2)C(=O)C=Cc2ccc(C(F)(F)F)cc2)c(F)c1F [Example 268, (S)-N-[1-({2-[(2,3-Difluoro-4-methyl-benzyl)-methyl-amino]-ethyl}-methyl-carbamoyl)-2-phenyl-ethyl]-N-(4-morpholin-4-yl-benzyl)-3-(4-trifluoromethyl-phenyl)-acrylamide] | 80 nM
COCCN(C)C(=O)[C@H](Cc1ccccc1)N(Cc1ccc(-c2cncnc2)cc1)C(=O)C=Cc1ccc(OC)nn1 [Example 126, (S)-N-{1-[(2-Methoxy-ethyl)-methyl-carbamoyl]-2-phenyl-ethyl}-3-(6-methoxy-pyridazin-3-yl)-N-(4-pyrimidin-5-yl-benzyl)-acrylamide] | 160 nM
O=C(NCCN1CCCCCC1)[C@H](Cc1ccccc1)N(Cc1ccc(-c2ccccn2)cc1)C(=O)C=Cc1ccc(C(F)(F)F)cc1 [Example 154] | 420 nM
COCCN(C)C(=O)[C@H](Cc1ccccc1)N(Cc1ccc(-c2cncnc2)cc1)C(=O)C=Cc1ccc(Cl)cn1 [Example 127, (S)-3-(5-Chloro-pyridin-2-yl)-N-{1-[(2-methoxy-ethyl)-methyl-carbamoyl]-2-phenyl-ethyl}-N-(4-pyrimidin-5-yl-benzyl)-acrylamide] | 21 nM
Cc1nn(C)c(C)c1C=CC(=O)N(Cc1ccc(-c2cncnc2)cc1)[C@@H](Cc1ccccc1)C(=O)N1CCC(N(C)C)CC1 [Example 36, (S)-N-[1-Benzyl-2-(4-dimethylamino-piperidin-1-yl)-2-oxo-ethyl]-N-(4-pyrimidin-5-yl-benzyl)-3-(1,3,5-trimethyl-1H-pyrazol-4-yl)-acrylamide] | 173 nM
COCCN(C)C(=O)[C@H](Cc1ccccc1)N(Cc1ccc(N2CCN(C(C)=O)CC2)cc1)C(=O)C=Cc1ccc(C)nc1 [Example 112, (S)-N-[4-(4-Acetyl-piperazin-1-yl)-benzyl]-N-{1-[(2-methoxy-ethyl)-methyl-carbamoyl]-2-phenyl-ethyl}-3-(6-methyl-pyridin-3-yl)-acrylamide] | 153 nM
COCCN(C)C(=O)[C@H](Cc1ccccc1)N(Cc1ccc(-c2ccncc2)cc1)C(=O)C=Cc1ccc(OC)nc1 [Example 101, (S)-N-{1-[(2-Methoxy-ethyl)-methyl-carbamoyl]-2-phenyl-ethyl}-3-(6-methoxy-pyridin-3-yl)-N-(4-pyridin-4-yl-benzyl)-acrylamide] | 8 nM
COCCN(C)C(=O)[C@H](Cc1ccccc1)N(Cc1ccc(-c2cncnc2)cc1)C(=O)C=Cc1cc(C)on1 [Example 123, (S)-N-{1-[(2-Methoxy-ethyl)-methyl-carbamoyl]-2-phenyl-ethyl}-3-(5-methyl-isoxazol-3-yl)-N-(4-pyrimidin-5-yl-benzyl)-acrylamide] | 296 nM
